Experimental data from patent US12071450B2, “Salts of conjugates for cancer therapy” (Biosight Ltd., priority 2015, dated 2024).
Structures can show the parent of a compound that is named as a salt.

Assays:
[1] = test system: L1210 leukemia cancer cells; experiment: MTT proliferation assay, L1210 leukemia cancer cells; assay type: cell-based; conditions: 72 hr incubation, formulated in saline, 6 replicates
Experimental: The L1210 leukemia cancer cells were grown in DMEM medium with 10% Donor Horse Serum, 1% Glutamine, 1% Non-essential Amino Acids, 0.1% Amphotericin, and 0.1% Gentamicin. Cells were diluted and seeded into 96-wells plate 2000 cells/ml, 400 cells/well, in a volume of 0.2 ml per well. The plates were incubated at 37° C. for 180 min. Following incubation, test substances were added at increasing concentrations from […] formulated in saline in 6 replicates each. The tested substances were Asp(Cytarabine).Acetate salt form, Asp(Cytarabine).hydrochloride salt form, Asp(Cytarabine).Methansulfonate salt form, Asp(Cytarabine).Benzenesulfonate salt form and Asp(Cytarabine).phosphate salt form. Test plates also included 6 replicate wells of saline as control. Plates were incubated at 37° C. for 72 hr prior to analysis. At the end of the exposure period, an MTT [3-(4,5-dimethylthiazole-2-yl)-2,5-diphenyl tetrazolium bromide] assay was performed. To each test well MTT at concentration of 5 mg/ml was added in a volume of 0.02 ml. Plates were incubated at 37° C. for 3 hr, then centrifuged at 3500 rpm for 6 minutes and the supernatants were aspirated. The pellets which contained MTT crystals were dissolved in 0.2 ml DMSO each. Absorbance was determined using ELISA reader at a wavelength of 570 nm.

[2] = test system: CCRF-CEM, Human acute lymphoblastic leukemia; experiment: MTT proliferation assay, CCRF-CEM cells; assay type: cell-based; conditions: 3 replicates
[3] = test system: Molt-4, Human acute lymphoblastic leukemia; experiment: MTT proliferation assay, Molt-4 cells; assay type: cell-based; conditions: 3 replicates
[4] = test system: CCRF-SB, Human acute lymphoblastic leukemia; experiment: MTT proliferation assay, CCRF-SB cells; assay type: cell-based; conditions: 3 replicates
[5] = test system: HL-60, Human promyelocytic leukemia; experiment: MTT proliferation assay, HL-60 cells; assay type: cell-based; conditions: 3 replicates
[6] = test system: K562, Human chronic myelogenous leukemia; experiment: MTT proliferation assay, K562 cells; assay type: cell-based; conditions: 3 replicates
[7] = Solubility in water and organic solvents; assay type: physicochemical
[8] = Stability (decomposition) in solvents; assay type: physicochemical; conditions: rate is determined by heat and time

Compound: Asp(Cytarabine).phosphate [Asp(Cytarabine)•phosphate salt form]
- IC50 [1]: 34 nM

Compound: NC(CC(=O)Nc1ccn([C@@H]2O[C@H](CO)C(O)C2O)c(=O)n1)C(=O)O (some centres unmarked) [Asp(Cytarabine)•Acetate salt form, Asp(Cytarabine).Acetate]
- IC50 [2]: 23 nM
- IC50 [1]: 116 nM
- IC50 [3]: 12 nM
- IC50 [4]: 19000 nM
- IC50 [5]: 262 nM
- IC50 [6]: 355 nM

Compound: Asp(Cytarabine).benzenesulfonate
- IC50 [1]: 23 nM

Compound: Asp(Cytarabine).methanesulfonate
- IC50 [1]: 2 nM

Compound: Cl.NC(CC(=O)Nc1ccn([C@@H]2O[C@H](CO)C(O)C2O)c(=O)n1)C(=O)O (some centres unmarked) [Asp(Cytarabine)•hydrochloride salt form, Asp(Cytarabine).HCl]
- solubility in organic solvents ([7]; most organic solvents: acetonitrile, ethers, ketones, halogenated solvents): insoluble
- solubility in water ([7]; water): soluble
- IC50 [1]: 240 nM
- stability in strong polar aprotic solvents ([8]; DMSO and DMF): decompose
- stability in water ([8]; water): decompose
